Laboratory results published in PMC11773334, “Preparation and pharmacokinetic evaluation of a sertraline-methylpropyphenazone prodrug: a comparative metabolic study on the plasma and brain tissues of rats using LC-MS/MS analysis” (RSC Advances, 2025).

Experiments:
[1] = QC sample stability in spiked rat plasma; type: in vitro ADME
Protocol: The working solutions were prepared separately for obtaining a 100 μg mL^−1 concentration. Calibration standards were generated from the working solution by spiking control plasma (100 μL) with a standard mixture to get the final concentrations: 25, 100, 250, 500, 1000, and 2000 ng mL^−1 plasma of each analyte. […]
Solid-phase extraction (SPE) was performed on the calibration standards prepared in plasma, quality control (QC) samples, rat plasma, and brain homogenate samples using Chromabond ® C8-100 mg columns (Macherey Nagel, Düren, Germany). […] The SPE column was filled with 25 μL of 0.1% aqueous ammonia solution, 100 μL plasma or brain homogenate, and 50 μL IS (20 ng μL^−1). […] The eluant was dried with nitrogen gas at room temperature, then reconstituted in 300 μL methanol, vortex, and transferred to a 0.9 mL total recovery autosampler vial, and dried with nitrogen gas.
(§1) The linearity of the targeted analytes was evaluated at six concentration levels spanning the range of 25–2000 ng mL^−1, and the calibration parameters were calculated. The method's accuracy was determined by calculating the estimated value for each QC sample compared with the actual concentration. The precision was assessed by analysis of QC samples at different concentrations (25.0, 500.0, and 2000.0 ng mL^−1) on separate days. The lowest point in the calibration curve was defined as the lower limit of quantification (LLOQ), which was determined to be at an acceptable accuracy and precision. The recovery of the extractions was evaluated by comparing the areas under the peak of the extracted samples with a non-extracted standard solution. Also, the matrix effect was evaluated by comparing the plasma sample spiked with the analyte with corresponding standard solutions at the same concentrations. Finally, the stability of the sample was investigated at three concentration levels, applying the same chromatographic conditions. The stability tests included long-term, short-term, and freeze-thaw stability.

[2] = cited from earlier work
[3] = Rat plasma pharmacokinetics after oral administration (LC-MS/MS, noncompartmental model)
Protocol: Sildenafil was used as an internal standard (IS). […] The MS conditions were set as follows: the ESI temperature was 330 °C, nitrogen gas flow rate was 11 L min^−1, nebulizer pressure was 35 psi, and capillary voltage was 4000 V. The MS settings were optimized for each compound, including the fragmentor voltage, dwell time (sec), and collision energy voltage. […] A gradient elution program was applied using a mobile phase composed of methanol (solvent A) and 0.7 g L^−1 ammonium acetate trihydrate in water with 0.1% formic acid (solvent B). […] The mobile phase was pumped at a flow rate of 0.4 mL min^−1. The equilibration duration was 7.0 min. The sample injection volume was 5 μL. The total running time for the analysis was 20 min. […] The SPE column was conditioned with 1 mL methanol and 2 mL of 0.1% aqueous ammonia solution. […] The SPE column was gently clicked to mix the solution, then allowed to elute just below the stationary phase surface before being trapped for 1 min in the stationary phase. The column was then washed with 1 mL of 0.1% ammonia solution, forcing nitrogen to eject water from the SPE column. The column was connected to a new port via a clean test tube, and the analytes were eluted using 3 mL ethyl acetate: n-hexane (2 : 1, v/v) and 1 mL methanol. […] The residue was dissolved in 50 μL methanol, and a 5 μL volume was injected for LC-MS/MS analysis. […] The results were expressed as the mean ± SD. The evaluated parameters included Cmax (maximum concentration), Tmax (time to reach Cmax), t1/2 (half-life), Ke (elimination rate constant), AUC (area under the concentration–time curve), AUMC (area under the first moment curve), and MRT (mean residence time). The data were analyzed using Kinetica® software, employing a noncompartmental analysis approach. […] The pharmacokinetic parameters between the groups were compared using an unpaired two-tailed t-test. Statistical significance was defined as P < 0.05.

rat serotonin (ST) = assay: Analysis of serotonin in brain homogenate (ELISA sandwich kit); conditions: SER: within 1 to 3 h after oral administration, Fig. 6
Protocol: Wistar rats weighing 250 ± 30 g were included in the study. […] Phosphate-buffered saline (PBS) was utilized as a matrix to homogenize the brain samples. Both the brain and blood samples were frozen at −80 °C until their analysis.
An enzyme-linked immunosorbent assay (ELISA) sandwich kit was used in this study as it is known that it can accurately quantify rat serotonin (ST) in serum, plasma, cell culture supernatants, ascites, tissue homogenates, and other biological fluids. In the assay, first the plate was pre-coated with a rat ST antibody. When ST is present in the sample, it binds to the antibodies on the wells. Next, a biotinylated rat ST antibody was added, which binds to the ST in the sample. Streptavidin-HRP was then added, binding to the biotinylated ST antibody. After incubation, the unbound Streptavidin-HRP was washed away. […] The reaction was terminated by adding an acidic stop solution, and then the absorbance was measured at 450 nm.

[4] = Stability of standard solutions under storage conditions; type: physicochemical; conditions: room temperature for 6 h and 4 °C for 12 h
Protocol: as §1
Standard solutions were maintained at room temperature for 6 h and 4 °C for 12 h, and then analyzed using the developed method. […] Recoveries remained above 89%, and the standard deviation (SD%) values were below 3%, as detailed in Table 3.

[5] = Concentration in rat brain homogenate after oral administration (LC-MS/MS); type: in vivo, Wistar rats; conditions: 0.5 to 192 h after oral SER-MP
Protocol: Sildenafil was used as an internal standard (IS). […] The gradient program was configured as follows: 68% A from 0 to 2 min, raised to 96% A at 4.0 min, sustained at 96% A until 13 min, and then reverting back to 68% A at 13.1 min. […] The equilibration duration was 7.0 min. The sample injection volume was 5 μL.

[6] = rat plasma, oral SER-MP 16.0 mg kg^−1 (equimolar to SER dose), analyte SER-MP or released metabolite

Row | Average recovery (%) ± SD, Autosampler (25 °C/24 h) ([1]; 50.0 ng mL^−1) [%] | Average recovery (%) ± SD, Freeze-thaw (−20 °C/3 cycles) ([1]; 50.0 ng mL^−1) [%] | Average recovery (%) ± SD, Autosampler (25 °C/24 h) ([1]; 500.0 ng mL^−1) [%] | Average recovery (%) ± SD, Freeze-thaw (−20 °C/3 cycles) ([1]; 500.0 ng mL^−1) [%] | Average recovery (%) ± SD, Autosampler (25 °C/24 h) ([1]; 2000.0 ng mL^−1) [%] | Average recovery (%) ± SD, Freeze-thaw (−20 °C/3 cycles) ([1]; 2000.0 ng mL^−1) [%] | Structure (SMILES) | Stability of standard solutions (change in peak area) [4] | also measured
1 | 96.80 ± 0.98 | 94.39 ± 2.98 | 96.55 ± 1.20 | 95.47 ± 1.57 | 95.24 ± 2.56 | 95.73 ± 1.93 | CC(C)c1c(CO)n(C)n(-c2ccccc2)c1=O [3-OHMP, 3-hydroxymethylpropyphenazone] |  | 
2 |  |  |  |  |  |  | N[C@H]1CC[C@@H](c2ccc(Cl)c(Cl)c2)c2ccccc21 [N-desmethyl-SER, N-Desmethyl-sertraline] |  | Half-life (t1/2) ([2]; in vivo): 66 to 80 h
3 |  |  |  |  |  |  | CC(C)c1c(CN[C@H]2CC[C@@H](c3ccc(Cl)c(Cl)c3)c3ccccc32)n(C)n(-c2ccccc2)c1=O [nor-methyl-SER-MP] |  | Time retained in the plasma ([3]; rat plasma after oral SER-MP, major metabolite): 195 h
4 | 97.45 ± 0.78 | 95.70 ± 1.76 | 98.76 ± 1.03 | 96.84 ± 0.68 | 98.88 ± 0.80 | 94.99 ± 2.09 | CC(C)c1c(CN(C)C2CCC(c3ccc(Cl)c(Cl)c3)c3ccccc32)n(C)n(-c2ccccc2)c1=O (stereo not shown) [SER-MP, sertraline-methylpropyphenazone] | No significant changes in peak area values | Course of serotonin level in the brain after a single oral dose (rat serotonin (ST)): approximately steady level; Concentration of SER-MP in rat brain [5]: ~100 ng/g; half-life ([3]; Wistar, rat, plasma, po, 16 mg kg^−1, t1/2 (half-life), rat plasma, oral SER-MP 16.0 mg kg^−1 (equimolar to SER dose), analyte SER-MP or released metabolite): 50 h; Cmax ([3]; Wistar, rat, plasma, po, 16 mg/kg, Cmax (maximum plasma concentration), rat plasma, oral SER-MP 16.0 mg kg^−1 (equimolar to SER dose), analyte SER-MP or released metabolite): 192 ng/mL; Cmax (maximum plasma concentration) [3, 6]: 192.11 ng/mL; Total clearance rate [3, 6]: 4.32 mL/day/kg; t1/2 (half-life) [3, 6]: 49.97 h
5 | 92.98 ± 1.35 | 91.04 ± 2.95 | 93.23 ± 0.98 | 90.68 ± 3.92 | 91.15 ± 2.20 | 89.23 ± 4.00 | CN[C@H]1CC[C@@H](c2ccc(Cl)c(Cl)c2)c2ccccc21 [SER, (1S,4S)-4-(3,4-dichlorophenyl)-N-methyl-1,2,3,4-tetrahydronaphthalen-1-amine] | No significant changes in peak area values | Fraction excreted as metabolites [2]: About 40%; Fraction in plasma bound to proteins [2]: About 98%
